Measurements from patent publication US7968097B2, “Identification of Hla-A2-presented T-cell epitopes derived from the oncofoetal antigen-immature laminin receptor protein and uses thereof” (Immatics Biotechnologies GmbH, priority 2005, dated 2011).

Key:
[1] = system: peptide-pulsed T2 cells; assay: Lysis of peptide-pulsed T2 target cells by peptide-specific CTL (peptide titration); type: cell-based, human
[2] = system: peptide-pulsed 51Cr-labelled T2 cells; assay: Cold target inhibition assay; type: cell-based, human
From the text: CTL derived from healthy HLA-A*0201^+ individuals were generated using a protocol described elsewhere (Zeis M, Siegel S, Schmitz M et al. Induction of cytotoxic T lymphocytes against hematologic neoplasms by survivin RNA-transfected dendritic cells. J Immunol. 2003; 170, 5391-5397.). For the induction of autologous OFA/ILR, peptide-specific CTL obtained from patients with AML and CLL, CD8^+ T cells were separated from PBMC using immunomagnetic beads (MACS®, Miltenyi, Bergisch-Gladbach, Germany), cultured with autologous OFA/iLR peptide-pulsed fully matured DC and restimulated with autologous peptide-pulsed PBMC in the presence of IL-2 (1 ng/ml, CellConcepts, Weisskirch, Germany). After at least four weekly restimulations, CTL reactivity was determined in a conventional 4 h ^51Chromium release assay. Cold target inhibition assays and antibody blocking experiments were performed as previously described (Zeis M, Siegel S, Schmitz M et al. Induction of cytotoxic T lymphocytes against hematologic neoplasms by survivin RNA-transfected dendritic cells. J Immunol. 2003; 170, 5391-5397.).
A cold target inhibition assay was performed. To examine whether ILR1-specific T cells lyse ILR1 peptide-pulsed T2 cells specifically and in the context of HLA-A*02, cold target inhibition assays were performed as follows: ^51Cr-labelled T2 cells were loaded with peptide in a concentration of 10 microgram peptide/10^6 T2 cells/ml. A total of 2×10^5 unlabelled, T2 cells, which had equally been loaded with the same or a control peptide, were then added in a volume of 50 microliter AIMV to 10^4 peptide-pulsed, ^51Cr-labelled T2 cells. Effector T cells specific for ILR1 were added and a ^51Cr-release assay was performed as described above.
A cold target inhibition assay was performed as described under “T2+ILR1” above.

| Sequence | recognition/lysis of T2 cells pulsed with the peptide [1] | competition of cold targets loaded with the peptide for lysis ([2]; hot target ILR1-peptide-pulsed T2, effectors ILR1-specific CTL, 10 microgram peptide/10^6 T2 cells/ml) | competition of cold targets loaded with the peptide for lysis ([2]; hot target ILR2-peptide-pulsed T2, effectors ILR2-specific CTL) |
| --- | --- | --- | --- |
| ILKEPVHGV [HIV peptide, reference compound] | not recognized |  |  |
| LYLKNYRIA (listed as Homo sapiens) [Survivin, reference compound] |  | neither peptides irrelevant for ILR1-specific CTL (Survivin and ILR2), nor unloaded T2 cells, which display empty HLA-A*02 molecules on their cell surfaces, compete for lysis | neither peptides irrelevant for ILR2-specific CTL (Survivin and ILR1), nor unloaded T2 cells, which display empty HLA-A*02 molecules on their cell surfaces, compete for lysis |
